Measurements as given in patent US9676758B2, “1-heteroaryl-indoline-4-carboxamides as modulators of GPR52 useful for the treatment or prevention of disorders related thereto” (Arena Pharmaceuticals, Inc., priority 2015, dated 2017).

biological target: T1, recombinant GPR52 (Homo sapiens, UniProt Q9Y2T5); assay: HTRF cAMP assay for direct cAMP measurement; format: cell-based; details: mean EC50; CHO-K1 or HEK293 cells stably expressing recombinant GPR52
T1 construct: expressed in transfected cells
Procedure: HTRF cAMP assays were performed using commercially available assay kits according to the manufacturer's instructions (cAMP Dynamic 2 Assay Kit; #62AM4PEJ, Cisbio Bioassays, Bedford, Mass.). CHO-K1 or HEK293 cells stably expressing recombinant GPR52 were harvested and resuspended in assay buffer (PBS containing 0.5 mM IBMX and 0.1% BSA) at a density of 1.2×10^6 cells per mL. […] Test compounds were solubilized and serially diluted in DMSO using 5-fold dilutions to generate 10-point dose response curves. These serially diluted samples were then further diluted in PBS to achieve a 2× stock. The diluted compounds were transferred to triplicate assay plates (5 μL per well to achieve the 1× final assay concentration). A positive control was included in each assay run. After one-hour incubation at room temperature, 5 μL of cAMP D2 reagent diluted in lysis buffer was added to each well, followed by 5 μL of cryptate reagent. Plates were then incubated at room temperature for one hour prior to reading. Time-resolved fluorescence measurements were collected on an HTRF-capable plate reader (e.g., EnVision® (PerkinElmer, Waltham, Mass.) or PHERAstar (BMG LABTECH, Cary, N.C.)). Counts from the plate reader were fit to the cAMP standard curve included on each plate to determine the amount of cAMP in each test well. Dose-response curves were generated from the cAMP data and analyzed using a nonlinear least squares curve-fitting program to obtain EC50 values.

T1 sequence (Q9Y2T5 whole entry): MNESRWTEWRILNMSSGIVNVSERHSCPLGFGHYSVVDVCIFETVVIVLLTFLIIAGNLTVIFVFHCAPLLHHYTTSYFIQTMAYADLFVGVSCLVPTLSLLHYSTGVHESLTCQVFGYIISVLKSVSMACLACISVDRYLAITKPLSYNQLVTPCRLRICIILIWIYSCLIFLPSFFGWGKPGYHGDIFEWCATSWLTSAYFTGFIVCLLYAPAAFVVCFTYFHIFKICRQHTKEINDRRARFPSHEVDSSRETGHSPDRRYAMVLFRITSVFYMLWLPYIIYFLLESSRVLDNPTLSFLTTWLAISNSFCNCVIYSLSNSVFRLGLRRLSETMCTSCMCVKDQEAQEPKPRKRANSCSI

| EC50 [nM] | SMILES |
| --- | --- |
| 23.1 | NC(=O)c1cccc2c1CCN2c1cc(Cc2cccc(OC(F)(F)F)c2)ccn1 [Compound 64, 1-(4-(3-(Trifluoromethoxy)benzyl)pyridin-2-yl)indoline-4-carboxamide] |
| 10.7 | CC(=O)c1cc(Cc2ccnc(N3CCc4c(C(=O)NCCO)cccc43)c2)ccc1F [Compound 77, 1-(4-(3-Acetyl-4-fluorobenzyl)pyridin-2-yl)-N-(2-hydroxyethyl)indoline-4-carboxamide] |
| 3750 | CN(C)Cc1cccc(Cc2ccnc(N3CCc4c(C(N)=O)cccc43)c2)c1 [Compound 81, 1-(4-(3-((Dimethylamino)methyl)benzyl)pyridin-2-yl)indoline-4-carboxamide] |
| 1.06 | COc1ccc(Cc2ccnc(N3CCc4c(C(=O)NC5CCN(CCO)CC5)cccc43)c2)cc1F [Compound 91, 1-(4-(3-Fluoro-4-methoxybenzyl)pyridin-2-yl)-N-(1-(2-hydroxyethyl)piperidin-4-yl)indoline-4-carboxamide] |
| 212 | NC(=O)c1cccc2c1CCN2c1cc(Cc2ccc3c(c2)OCCCO3)ccn1 [Compound 96, 1-(4-((3,4-Dihydro-2H-benzo[b][1,4]dioxepin-7-yl)methyl)pyridin-2-yl)indoline-4-carboxamide] |
| 35.9 | NC(=O)c1cccc2c1CCN2c1cc(Cc2ccc(O)c(F)c2)ccn1 [Compound 97, 1-(4-(3-Fluoro-4-hydroxybenzyl)pyridin-2-yl)indoline-4-carboxamide] |
| 21.4 | CC(=O)Oc1cccc(Cc2ccnc(N3CCc4c(C(N)=O)cccc43)c2)c1 [Compound 102, 3-((2-(4-Carbamoylindolin-1-yl)pyridin-4-yl)methyl)phenyl acetate] |
| 61 | NC(=O)c1cccc2c1CCN2c1cc(Cc2cnc3ccccc3c2)ccn1 [Compound 111, 1-(4-(Quinolin-3-ylmethyl)pyridin-2-yl)indoline-4-carboxamide] |
| 23.6 | Cn1cc(NC(=O)c2cccc3c2CCN3c2cc(Cc3cc(F)c(F)c(F)c3)ccn2)cn1 [Compound 117, N-(1-Methyl-1H-pyrazol-4-yl)-1-(4-(3,4,5-trifluorobenzyl)pyridin-2-yl)indoline-4-carboxamide] |
| 9.74 | O=C(Nc1cnn(CCO)c1)c1cccc2c1CCN2c1cc(Cc2cc(F)c(F)c(F)c2)ccn1 [Compound 118, N-(1-(2-Hydroxyethyl)-1H-pyrazol-4-yl)-1-(4-(3,4,5-trifluorobenzyl)pyridin-2-yl)indoline-4-carboxamide] |
| 38.7 | NC(=O)c1cccc2c1CCN2c1cc(Cc2cc3ccccc3o2)ccn1 [Compound 119, 1-(4-(Benzofuran-2-ylmethyl)pyridin-2-yl)indoline-4-carboxamide] |
| 307 | COCC(COC)NC(=O)c1cccc2c1CCN2c1cc(Cc2cc(F)c(F)c(F)c2)ccn1 [Compound 131, N-(1,3-Dimethoxypropan-2-yl)-1-(4-(3,4,5-trifluorobenzyl)pyridin-2-yl)indoline-4-carboxamide] |
| 18.3 | O=C(NCCN1CCNC1=O)c1cccc2c1CCN2c1cc(Cc2cc(F)c(F)c(F)c2)ccn1 [Compound 133, N-(2-(2-Oxoimidazolidin-1-yl)ethyl)-1-(4-(3,4,5-trifluorobenzyl)pyridin-2-yl)indoline-4-carboxamide] |
| 142 | O=C(N[C@@H]1CCOC1=O)c1cccc2c1CCN2c1cc(Cc2cc(F)c(F)c(F)c2)ccn1 [Compound 135, (R)-N-(2-Oxotetrahydrofuran-3-yl)-1-(4-(3,4,5-trifluorobenzyl)pyridin-2-yl)indoline-4-carboxamide] |
| 37 | O=C(NC[C@H](O)c1cccnc1)c1cccc2c1CCN2c1cc(Cc2cc(F)c(F)c(F)c2)ccn1 [Compound 148, (R)-N-(2-Hydroxy-2-(pyridin-3-yl)ethyl)-1-(4-(3,4,5-trifluorobenzyl)pyridin-2-yl)indoline-4-carboxamide] |
| 55.9 | O=C(NCC1(CO)COC1)c1c(F)ccc2c1CCN2c1cc(Cc2cc(F)c(F)c(F)c2)ccn1 [Compound 155, 5-Fluoro-N-((3-(hydroxymethyl)oxetan-3-yl)methyl)-1-(4-(3,4,5-trifluorobenzyl)pyridin-2-yl)indoline-4-carboxamide] |
| 6.76 | CN(C)CC(O)CNC(=O)c1cccc2c1CCN2c1cc(Cc2cc(F)c(F)c(F)c2)ccn1 (stereo not drawn) [Compound 158, N-(3-(Dimethylamino)-2-hydroxypropyl)-1-(4-(3,4,5-trifluorobenzyl)pyridin-2-yl)indoline-4-carboxamide] |
| 292 | O=C(NC[C@H](O)C(F)(F)F)c1cccc2c1CCN2c1cc(Cc2cc(F)c(F)c(F)c2)ccn1 [Compound 160, (S)-N-(3,3,3-Trifluoro-2-hydroxypropyl)-1-(4-(3,4,5-trifluorobenzyl)pyridin-2-yl)indoline-4-carboxamide] |
| 10.9 | COc1ccc(Cc2ccnc(N3CCc4c3ccc(F)c4C(=O)NCCNC(C)=O)c2)cc1F [Compound 164, N-(2-Acetamidoethyl)-5-fluoro-1-(4-(3-fluoro-4-methoxybenzyl)pyridin-2-yl)indoline-4-carboxamide] |

Second part, the compound before the results:

| SMILES | EC50 [nM] |
| --- | --- |
| O=C(N[C@H]1CCOC1)c1cccc2c1CCN2c1cccc(Cc2cccc(C(F)(F)F)c2)n1 [Compound 2, (S)-N-(Tetrahydrofuran-3-yl)-1-(6-(3-(trifluoromethyl)benzyl)pyridin-2-yl)indoline-4-carboxamide] | 106 |
| O=C(N[C@H]1CCOC1)c1cccc2c1CCN2c1ccnc(Cc2cccc(C(F)(F)F)c2)c1 [Compound 3, (S)-N-(Tetrahydrofuran-3-yl)-1-(2-(3-(trifluoromethyl)benzyl)pyridin-4-yl)indoline-4-carboxamide] | 10.3 |
| O=C(N[C@H]1CCOC1)c1cccc2c1CCN2c1cc(Cc2cccc(C(F)(F)F)c2)ccn1 [Compound 4, (S)-N-(Tetrahydrofuran-3-yl)-1-(4-(3-(trifluoromethyl)benzyl)pyridin-2-yl)indoline-4-carboxamide] | 12.3 |
| O=C(N[C@H]1CCOC1)c1cccc2c1CCN2c1cncc(Cc2cccc(C(F)(F)F)c2)c1 [Compound 7, (S)-N-(Tetrahydrofuran-3-yl)-1-(5-(3-(trifluoromethyl)benzyl)pyridin-3-yl)indoline-4-carboxamide] | 5.21 |
| CNC(=O)c1cccc2c1CCN2c1cncc(Cc2cccc(C(F)(F)F)c2)c1 [Compound 9, N-Methyl-1-(5-(3-(trifluoromethyl)benzyl)pyridin-3-yl)indoline-4-carboxamide] | 7.45 |
| Cc1cc(Cc2cccc(C(F)(F)F)c2)cc(N2CCc3c(C(N)=O)cccc32)n1 [Compound 17, 1-(6-Methyl-4-(3-(trifluoromethyl)benzyl)pyridin-2-yl)indoline-4-carboxamide] | 80.4 |
| N#CCCNC(=O)c1cccc2c1CCN2c1cc(Cc2cccc(C(F)(F)F)c2)ccn1 [Compound 20, N-(2-Cyanoethyl)-1-(4-(3-(trifluoromethyl)benzyl)pyridin-2-yl)indoline-4-carboxamide] | 36.3 |
| O=C(NCCO)c1cccc2c1CCN2c1cc(Oc2cc(F)cc(C(F)(F)F)c2)ccn1 [Compound 23, 1-(4-(3-Fluoro-5-(trifluoromethyl)phenoxy)pyridin-2-yl)-N-(2-hydroxyethyl)indoline-4-carboxamide] | 98.4 |
| NC(=O)c1cccc2c1CCN2c1cc(Sc2cccc(C(F)(F)F)c2)ccn1 [Compound 30, 1-(4-(3-(Trifluoromethyl)phenylthio)pyridin-2-yl)indoline-4-carboxamide] | 428 |
| O=C(NC[C@H](O)CO)c1cccc2c1CCN2c1cc(Cc2cc(F)cc(C(F)(F)F)c2)ccn1 [Compound 31, (S)-N-(2,3-Dihydroxypropyl)-1-(4-(3-fluoro-5-(trifluoromethyl)benzyl)pyridin-2-yl)indoline-4-carboxamide] | 72 |
| O=C(NCCO)c1cccc2c1CCN2c1cncc(Cc2cccc(C(F)(F)F)c2)n1 [Compound 38, N-(2-Hydroxyethyl)-1-(6-(3-(trifluoromethyl)benzyl)pyrazin-2-yl)indoline-4-carboxamide] | 601 |
| NC(=O)c1cccc2c1CCN2c1cc(Cc2cnc(F)c(F)c2)ccn1 [Compound 49, 1-(4-((5,6-Difluoropyridin-3-yl)methyl)pyridin-2-yl)indoline-4-carboxamide] | 61.6 |
| Cc1cc(Cc2ccnc(N3CCc4c(C(N)=O)cccc43)c2)cnc1F [Compound 50, 1-(4-((6-Fluoro-5-methylpyridin-3-yl)methyl)pyridin-2-yl)indoline-4-carboxamide] | 17.4 |
| CC(=O)c1ccc(Cc2ccnc(N3CCc4c(C(N)=O)cccc43)c2)cc1 [Compound 55, 1-(4-(4-Acetylbenzyl)pyridin-2-yl)indoline-4-carboxamide] | 16 |
| CNC(=O)c1cc(Cc2ccnc(N3CCc4c(C(N)=O)cccc43)c2)ccc1F [Compound 59, 1-(4-(4-Fluoro-3-(methylcarbamoyl)benzyl)pyridin-2-yl)indoline-4-carboxamide] | 223 |
| N#Cc1cc(Cc2ccnc(N3CCc4c(C(N)=O)cccc43)c2)ccc1F [Compound 60, 1-(4-(3-Cyano-4-fluorobenzyl)pyridin-2-yl)indoline-4-carboxamide] | 11.7 |
| NC(=O)c1cccc2c1CCN2c1cc(Cc2ccc(F)c(CO)c2)ccn1 [Compound 63, 1-(4-(4-Fluoro-3-(hydroxymethyl)benzyl)pyridin-2-yl)indoline-4-carboxamide] | 36.5 |
